{
  "source": "ChEMBL document CHEMBL1158895",
  "about": "“Tartrolone C: a novel insecticidal macrodiolide produced by Streptomyces sp. CP1130” (2003)",
  "key": {"[1]": {"tested_on": "Spodoptera exigua", "assay": "Antilepidopteran activity against beet armyworm eggs assessed as minimum emergent larvicide concentration after 6 to 7 days", "assay_type": "functional"}, "[2]": {"tested_on": "Heliothis virescens", "assay": "Antilepidopteran activity against tobacco budworm eggs assessed as minimum emergent larvicide concentration after 6 to 7 days", "assay_type": "functional"}},
  "data": [
    {"compound": "C[C@@H]1C(=O)C[C@@H](O)CC/C=C/C=C\\CC[C@H](C)OC(=O)[C@@H]2O[B-]34O[C@@H](C(=O)O[C@@H](C)CC/C=C\\C=C\\CC[C@H](O)CC(=O)[C@@H](C)[C@@H]5CC[C@](C)(O)[C@]2(O5)O3)[C@@]2(O[C@H]1CC[C@]2(C)O)O4", "note": "[TARTROLON C]", "values": [
      {"measurement": "Activity", "setting": "[1]", "value": 125, "unit": "ppm"},
      {"measurement": "Activity", "setting": "[2]", "value": 125, "unit": "ppm"}
    ]},
    {"compound": "CC[C@H]1CCC[C@H](O[C@H]2CC[C@H](N(C)C)[C@@H](C)O2)[C@@H](C)C(=O)C2=C[C@@H]3[C@@H](C=C[C@@H]4C[C@@H](O[C@@H]5O[C@@H](C)[C@H](OC)[C@@H](OC)[C@H]5OC)C[C@@H]34)[C@@H]2CC(=O)O1", "note": "[SPINOSYN A]", "values": [
      {"measurement": "Activity", "setting": "[1]", "value": 3, "unit": "ppm"},
      {"measurement": "Activity", "setting": "[2]", "value": 0.4, "unit": "ppm"}
    ]}
  ]
}
